“And” between values parts separate entries of the source, which are not always exact repeats. Identical values can stand only once. Each block holds one compound with its values, some of them ahead of it.
Tested on: K98450-129-R-PDC multicell spheroids, viability
Test: Anticancer human tumor K98450-129-R-PDC patient-derived colon adenocarcinoma cell line growth inhibition [PI3K]
Conditions: for viability, T/C: stronger effect = lower value
How it was run: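 High-throughput combination screen: PI3K inhibitors crossed with targeted small molecules on complex spheroids of tumor cells, HUVEC and MSCs at 37 degrees C, 5% CO2. Top concentration was at or near clinical Cmax (otherwise 10 microM), with half-log decrements.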

[1] = curve of first compound, second compound 0.00316 µM
[2] = curve of first compound, second compound 0.01 µM
[3] = curve of first compound, second compound 0.0316 µM
[4] = curve of first compound, second compound 0.1 µM
[5] = curve of first compound, second compound 0.316 µM
[6] = curve of first compound, second compound 1 µM
[7] = second compound 0.00316 µM, first compound 0.0316 µM
[8] = second compound 0.00316 µM, first compound 0.1 µM
[9] = second compound 0.00316 µM, first compound 0.316 µM
[10] = second compound 0.00316 µM, first compound 1 µM
[11] = second compound 0.01 µM, first compound 0.0316 µM
[12] = second compound 0.01 µM, first compound 0.1 µM
[13] = second compound 0.01 µM, first compound 0.316 µM
[14] = second compound 0.01 µM, first compound 1 µM
[15] = second compound 0.0316 µM, first compound 0.0316 µM
[16] = second compound 0.0316 µM, first compound 0.1 µM
[17] = second compound 0.0316 µM, first compound 0.316 µM
[18] = second compound 0.0316 µM, first compound 1 µM
[19] = second compound 0.0316 µM, first compound 3.16 µM
[20] = second compound 0.0316 µM, first compound 10 µM
[21] = second compound 0.1 µM, first compound 0.0316 µM
[22] = second compound 0.1 µM, first compound 0.1 µM
[23] = second compound 0.1 µM, first compound 0.316 µM
[24] = second compound 0.1 µM, first compound 1 µM
[25] = second compound 0.1 µM, first compound 3.16 µM
[26] = second compound 0.1 µM, first compound 10 µM
[27] = second compound 0.316 µM, first compound 0.0316 µM
[28] = second compound 0.316 µM, first compound 0.1 µM
[29] = second compound 0.316 µM, first compound 0.316 µM
[30] = second compound 0.316 µM, first compound 1 µM
[31] = second compound 0.316 µM, first compound 3.16 µM
[32] = second compound 0.316 µM, first compound 10 µM
[33] = second compound 1 µM, first compound 0.0316 µM
[34] = second compound 1 µM, first compound 0.1 µM
[35] = second compound 1 µM, first compound 0.316 µM
[36] = second compound 1 µM, first compound 1 µM
[37] = second compound 1 µM, first compound 3.16 µM
[38] = second compound 1 µM, first compound 10 µM
[39] = curve of first compound, second compound 3.16 µM
[40] = curve of first compound, second compound 10 µM
[41] = second compound 0.0316 µM, first compound 0.00316 µM
[42] = second compound 0.0316 µM, first compound 0.01 µM
[43] = second compound 0.1 µM, first compound 0.00316 µM
[44] = second compound 0.1 µM, first compound 0.01 µM
[45] = second compound 0.316 µM, first compound 0.00316 µM
[46] = second compound 0.316 µM, first compound 0.01 µM
[47] = second compound 1 µM, first compound 0.00316 µM
[48] = second compound 1 µM, first compound 0.01 µM
[49] = second compound 3.16 µM, first compound 0.0316 µM
[50] = second compound 3.16 µM, first compound 0.1 µM
[51] = second compound 10 µM, first compound 0.0316 µM
[52] = second compound 10 µM, first compound 0.1 µM
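Note: spheroids exposed to agents for seven days before read-out.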

SMILES: CCCS(=O)(=O)Nc1ccc(F)c(C(=O)c2c[nH]c3ncc(-c4ccc(Cl)cc4)cc23)c1F + COc1c(OCCCN2CCOCC2)ccc2c3n(c(=NC(=O)c4cnc(N)nc4)nc12)CCN3
IC50 [1]: 5990 nM
IC50 [2]: 5770 nM
IC50 [3]: 5540 nM
IC50 [4]: 4000 nM
IC50 [5]: 2710 nM
IC50 [6]: 1650 nM
viability, T/C [7]: 107%
viability, T/C [8]: 105%
viability, T/C [9]: 95.1%
viability, T/C [10]: 120%
viability, T/C (second compound 0.00316 µM, first compound 3.16 µM): 105%
viability, T/C (second compound 0.00316 µM, first compound 10 µM): 5.65%
viability, T/C [11]: 116%
viability, T/C [12]: 93%
viability, T/C [13]: 93.4%
viability, T/C [14]: 60.2%
viability, T/C (second compound 0.01 µM, first compound 3.16 µM): 93.9%
viability, T/C (second compound 0.01 µM, first compound 10 µM): 12.2%
viability, T/C [15]: 99%
viability, T/C [16]: 95.5%
viability, T/C [17]: 82.3%
viability, T/C [18]: 78.3%
viability, T/C [19]: 91.6%
viability, T/C [20]: 8.56%
viability, T/C [21]: 84%
viability, T/C [22]: 98.2%
viability, T/C [23]: 76.2%
viability, T/C [24]: 80.2%
viability, T/C [25]: 61.7%
viability, T/C [26]: 7.64%
viability, T/C [27]: 66.5%
viability, T/C [28]: 79.5%
viability, T/C [29]: 72%
viability, T/C [30]: 80.2%
viability, T/C [31]: 46.2%
viability, T/C [32]: 7.49%
viability, T/C [33]: 57.6%
viability, T/C [34]: 53.8%
viability, T/C [35]: 54.3%
viability, T/C [36]: 59.9%
viability, T/C [37]: 41.9%
viability, T/C [38]: 7.62%

SMILES: CC(Cn1ccc(-c2ccc(C#N)c(Cl)c2)n1)NC(=O)c1cc(C(C)O)[nH]n1 (stereo not given)
viability, T/C (compound 0.0316 µM): 92.4% and 103% (2×) and 102%
viability, T/C (compound 0.1 µM): 107% [middle of 4 runs]
viability, T/C (compound 0.316 µM): 102% [middle of 4 runs]
viability, T/C (compound 1 µM): 95.1% and 107% (2×) and 91.3%
viability, T/C (compound 3.16 µM): 108% and 104% (2×) and 96.2%
viability, T/C (compound 10 µM): 104% [middle of 4 runs]
IC50 (curve of compound): > 10000 nM

The next lines start with results.

IC50 [3]: > 100 nM
IC50 [4]: > 100 nM
IC50 [5]: > 100 nM
IC50 [6]: > 100 nM
IC50 [39]: > 100 nM
IC50 [40]: > 100 nM
SMILES: CC(=O)c1c(C)c2cnc(Nc3ccc(N4CCNCC4)cn3)nc2n(C2CCCC2)c1=O + CC(Nc1ncnc2nc[nH]c12)c1cc2cccc(Cl)c2c(=O)n1-c1ccccc1
viability, T/C (second compound 0.0316 µM, first compound 0.000316 µM): 105%
viability, T/C (second compound 0.0316 µM, first compound 0.001 µM): 100%
viability, T/C [41]: 110%
viability, T/C [42]: 99%
viability, T/C [15]: 100%
viability, T/C [16]: 86.2%
viability, T/C (second compound 0.1 µM, first compound 0.000316 µM): 109%
viability, T/C (second compound 0.1 µM, first compound 0.001 µM): 94.8%
viability, T/C [43]: 94.2%
viability, T/C [44]: 96.1%
viability, T/C [21]: 93.1%
viability, T/C [22]: 99.3%
viability, T/C (second compound 0.316 µM, first compound 0.000316 µM): 107%
viability, T/C (second compound 0.316 µM, first compound 0.001 µM): 106%
viability, T/C [45]: 93.7%
viability, T/C [46]: 94.8%
viability, T/C [27]: 101%
viability, T/C [28]: 81.6%
viability, T/C (second compound 1 µM, first compound 0.000316 µM): 102%
viability, T/C (second compound 1 µM, first compound 0.001 µM): 92.3%
viability, T/C [47]: 90.2%
viability, T/C [48]: 101%
viability, T/C [33]: 101%
viability, T/C [34]: 85.8%
viability, T/C (second compound 3.16 µM, first compound 0.000316 µM): 105%
viability, T/C (second compound 3.16 µM, first compound 0.001 µM): 97.2%
viability, T/C (second compound 3.16 µM, first compound 0.00316 µM): 87.6%
viability, T/C (second compound 3.16 µM, first compound 0.01 µM): 94.5%
viability, T/C [49]: 96.9%
viability, T/C [50]: 89.9%
viability, T/C (second compound 10 µM, first compound 0.000316 µM): 92.4%
viability, T/C (second compound 10 µM, first compound 0.001 µM): 96.7%
viability, T/C (second compound 10 µM, first compound 0.00316 µM): 74.5%
viability, T/C (second compound 10 µM, first compound 0.01 µM): 82.2%
viability, T/C [51]: 103%
viability, T/C [52]: 72.2%

IC50 [1]: > 1000 nM
IC50 [2]: > 1000 nM
IC50 [3]: > 1000 nM
IC50 [4]: > 1000 nM
IC50 [5]: > 1000 nM
IC50 [6]: < 3.16 nM
SMILES: CCN1CCN(Cc2ccc(Nc3ncc(F)c(-c4cc(F)c5nc(C)n(C(C)C)c5c4)n3)nc2)CC1 + COc1c(OCCCN2CCOCC2)ccc2c3n(c(=NC(=O)c4cnc(N)nc4)nc12)CCN3
viability, T/C (second compound 0.00316 µM, first compound 0.00316 µM): 99.6%
viability, T/C (second compound 0.00316 µM, first compound 0.01 µM): 108%
viability, T/C [7]: 88.9%
viability, T/C [8]: 86.9%
viability, T/C [9]: 87.5%
viability, T/C [10]: 79.4%
viability, T/C (second compound 0.01 µM, first compound 0.00316 µM): 117%
viability, T/C (second compound 0.01 µM, first compound 0.01 µM): 93.7%
viability, T/C [11]: 81.6%
viability, T/C [12]: 94%
viability, T/C [13]: 71.1%
viability, T/C [14]: 75.8%
viability, T/C [41]: 78.3%
viability, T/C [42]: 64.5%
viability, T/C [15]: 81.9%
viability, T/C [16]: 66.8%
viability, T/C [17]: 72.8%
viability, T/C [18]: 110%
viability, T/C [43]: 71.6%
viability, T/C [44]: 64.9%
viability, T/C [21]: 85.6%
viability, T/C [22]: 57.3%
viability, T/C [23]: 64.2%
viability, T/C [24]: 70.7%
viability, T/C [45]: 53.1%
viability, T/C [46]: 64.6%
viability, T/C [27]: 57.3%
viability, T/C [28]: 46.2%
viability, T/C [29]: 64.7%
viability, T/C [30]: 60%
viability, T/C [47]: 56%
viability, T/C [48]: 45%
viability, T/C [33]: 45.8%
viability, T/C [34]: 47.8%
viability, T/C [35]: 59.8%
viability, T/C [36]: 65.2%

IC50 [3]: > 10000 nM
IC50 [4]: > 10000 nM
IC50 [5]: > 10000 nM
IC50 [6]: > 10000 nM
IC50 [39]: > 10000 nM
IC50 [40]: > 10000 nM
SMILES: CC(C)NCC(C(=O)N1CCN(c2ncnc3c2C(C)CC3O)CC1)c1ccc(Cl)cc1 (stereo not given) + CC(Nc1ncnc2nc[nH]c12)c1cc2cccc(Cl)c2c(=O)n1-c1ccccc1
viability, T/C [15]: 98.2%
viability, T/C [16]: 107%
viability, T/C [17]: 101%
viability, T/C [18]: 96.4%
viability, T/C [19]: 102%
viability, T/C [20]: 98.5%
viability, T/C [21]: 111%
viability, T/C [22]: 115%
viability, T/C [23]: 99.3%
viability, T/C [24]: 89.6%
viability, T/C [25]: 94.9%
viability, T/C [26]: 83.4%
viability, T/C [27]: 96.6%
viability, T/C [28]: 97.2%
viability, T/C [29]: 87.1%
viability, T/C [30]: 105%
viability, T/C [31]: 105%
viability, T/C [32]: 102%
viability, T/C [33]: 106%
viability, T/C [34]: 100%
viability, T/C [35]: 104%
viability, T/C [36]: 98.4%
viability, T/C [37]: 115%
viability, T/C [38]: 101%
viability, T/C [49]: 79.2%
viability, T/C [50]: 88.4%
viability, T/C (second compound 3.16 µM, first compound 0.316 µM): 101%
viability, T/C (second compound 3.16 µM, first compound 1 µM): 99.2%
viability, T/C (second compound 3.16 µM, first compound 3.16 µM): 97.5%
viability, T/C (second compound 3.16 µM, first compound 10 µM): 85.7%
viability, T/C [51]: 110%
viability, T/C [52]: 89.5%
viability, T/C (second compound 10 µM, first compound 0.316 µM): 77.5%
viability, T/C (second compound 10 µM, first compound 1 µM): 88.6%
viability, T/C (second compound 10 µM, first compound 3.16 µM): 103%
viability, T/C (second compound 10 µM, first compound 10 µM): 87.2%

From PubChem BioAssay AID1963961 (Molecular Pharmacology Branch, DTP, NCI, 2024)
